Results published in patent publication US20240409566A1, “DELIVERY OF THERAPEUTIC ALKALOID COMPOUNDS” (priority 2022, published 2024).

What was measured:
[1] = Plasma stability assay, rat plasma; type: in vitro ADME
Method: (§1) Compound stability in rat and human plasma was measured by incubating compound with rat or human plasma at 37° C. in a microwell plate for sequential time points, monitoring pro-drug disappearance and metabolite appearance (mesembranol or 6-epi-mesembranol). A 2 mM stock solution of test compounds were prepared by dissolving appropriate amount of compounds in DMSO. The 2 mM stock was further diluted 200-folds in rat or human plasma to attain a final concentration of 10 μM respectively (0.5% DMSO). 50 μL aliquots of positive controls and test compounds spiked into rat or human plasma (n=2) were added to a pre-warmed plate (37° C.) and shaken at 50 rpm. At each respective time point, the reaction was stopped by adding 500 μL of acetonitrile containing internal standards (100 nM aprozolam, 200 nM caffeine, 100 nM tolbutamide). All samples were vortexed for 10 minutes, followed by centrifugation at 3,220 g for 30 minutes to precipitate proteins. 100 μL of the supernatant is transferred to a new plate. The supernatant will be diluted with ultrapure water according to the LC-MS signal response and peak shape. The concentrations of test compounds and positive control were quantified in the test samples using LC-MS/MS. Results reported as % of prodrug compound remaining at time point, and % of metabolite (mesembranol or 6-epi-mesembranol,) accumulated at time point.

[2] = Plasma stability assay, human plasma; type: in vitro ADME
Method: as §1

5-HT transporter (SERT) = 5-HT transporter (SERT) (Homo sapiens (Human), UniProt P31645); settings: cited from earlier work

Compound	Prodrug (%) ([1]; rat, 0 min, 10 µM)	Prodrug (%) ([1]; rat, 10 min, 10 µM)	Prodrug (%) ([1]; rat, 30 min, 10 µM)	Prodrug (%) ([1]; rat, 60 min, 10 µM)	Prodrug (%) ([1]; rat, 120 min, 10 µM)	Prodrug (%) ([1]; rat, 240 min, 10 µM)	Prodrug (%) ([2]; human, 0 min, 10 µM)	Prodrug (%) ([2]; human, 10 min, 10 µM)	Prodrug (%) ([2]; human, 30 min, 10 µM)	Prodrug (%) ([2]; human, 60 min, 10 µM)	Prodrug (%) ([2]; human, 120 min, 10 µM)	Prodrug (%) ([2]; human, 240 min, 10 µM)	further results
COc1ccc([C@@]23CC[C@@H](OC(=O)c4ccccc4)C[C@@H]2N(C)CC3)cc1OC [Compound 204, (3aS,6R,7aS)-3a-(3,4-dimethoxyphenyl)-1-methyloctahydro-1H-indol-6-yl benzoate]													Prodrug (%) ([1]; rat plasma, 37° C., 10 μM, 0 min, % prodrug remaining): 100.0%; Prodrug (%) ([1]; rat plasma, 37° C., 10 μM, 10 min, % prodrug remaining): 38.7%; Prodrug (%) ([1]; rat plasma, 37° C., 10 μM, 30 min, % prodrug remaining): 5.9%; Prodrug (%) ([1]; rat plasma, 37° C., 10 μM, 60 min, % prodrug remaining): 0.6%; Prodrug (%) ([1]; rat plasma, 37° C., 10 μM, 120 min, % prodrug remaining): 0.1%; Prodrug (%) ([1]; rat plasma, 37° C., 10 μM, 240 min, % prodrug remaining): 0.0%; Prodrug (%) ([2]; human plasma, 37° C., 10 μM, 0 min, % prodrug remaining): 100.00%; Prodrug (%) ([2]; human plasma, 37° C., 10 μM, 10 min, % prodrug remaining): 97.40%; Prodrug (%) ([2]; human plasma, 37° C., 10 μM, 30 min, % prodrug remaining): 94.26%; Prodrug (%) ([2]; human plasma, 37° C., 10 μM, 60 min, % prodrug remaining): 92.22%; Prodrug (%) ([2]; human plasma, 37° C., 10 μM, 120 min, % prodrug remaining): 93.59%; Prodrug (%) ([2]; human plasma, 37° C., 10 μM, 240 min, % prodrug remaining): 91.87%
COc1ccc([C@@]23CC[C@@H](OCOC(=O)C(C)(C)C)C[C@@H]2N(C)CC3)cc1OC [Compound 207, (((3aS,6R,7aS)-3a-(3,4-dimethoxyphenyl)-1-methyloctahydro-1H-indol-6-yl)oxy)methyl pivalate]	100.0	26.5	0.5	0.0	0.0	0.0	100.0	42.0	6.9	1.6	0.7	0.1	
COc1ccc([C@@]23CC[C@@H](OCOC(=O)C(C)C)C[C@@H]2N(C)CC3)cc1OC [Compound 208, (((3aS,6R,7aS)-3a-(3,4-dimethoxyphenyl)-1-methyloctahydro-1H-indol-6-yl)oxy)methyl isobutyrate]	100.0	0.0	0.0	0.0	0.0	0.0	100.0	0.1	0.2	0.2	0.0	0.0	
CCOC(=O)O[C@@H]1CC[C@@]2(c3ccc(OC)c(OC)c3)CCN(C)[C@H]2C1 [Compound 209, (3aS,6R,7aS)-3a-(3,4-dimethoxyphenyl)-1-methyloctahydro-1H-indol-6-yl ethyl carbonate]	100.0	11.5	0.0	0.0	0.0	0.0	100.0	96.0	91.8	87.6	84.1	72.5	
CCCC(=O)OCO[C@@H]1CC[C@@]2(c3ccc(OC)c(OC)c3)CCN(C)[C@H]2C1 [Compound 210, (((3aS,6R,7aS)-3a-(3,4-dimethoxyphenyl)-1-methyloctahydro-1H-indol-6-yl)oxy)methyl butyrate]	100.0	0.0	0.0	0.0	0.1	0.1	100.0	0.5	1.0	0.6	0.1	0.1	
COc1ccc(C23C=CC(O)CC2N(C)CC3)cc1OC (centres unmarked) [Mesembrenol]													nH, 5-HT transporter (SERT) (5-HT transporter (SERT); Hill coefficient of concentration response curves): 1.1; Ki (5-HT transporter (SERT); concentration response curves, binding): 62 nM
